Reference: patent publication US20250073226A1, “USE OF OPIOID FOR TREATMENT OF AUTISM SPECTRUM DISORDERS” (priority 2021, published 2025)

Columns and labels:
[1] = system: medial prefrontal cortex; test: Brain activation: c-Fos positive cells in medial prefrontal cortex; type: in vivo, mice; conditions: VPA model, 1 hour after administration
Protocol: Saline or buprenorphine at 0.0003, 0.003, or 0.03 mg/kg was administered to the VPA model, and 1 hour after that, the brain was extracted and immunostained with an anti-c-Fos antibody, and the number of c-Fos positive cells in nucleus accumens (NAc) and medial prefrontal cortex, which are brain regions known to promote social behavior, and dorsomedial periaqueductal gray (dmPAG), which is a brain region known to reduce social behavior and to be involved in the expression of analgesic effects, was quantified as the number of activated nerve cells.

[2] = system: Fmr1 knockout mice; test: 3 chamber test in Fmr1 knockout mice; type: in vivo; conditions: single subcutaneous administration, low dose of less than 1/10 of 1 mg/kg
Text: It is known that patients with human fragile X syndrome (FXS), which is caused by abnormalities of the X chromosome, present with social impairment symptoms, such as those often seen in ASD (Non-patent Documents 7 to 9). The Fmr1 knockout mouse (Cell, 1994, 15; 78 (1): 23-33) is a model mouse that mimics human fragile X syndrome (FXS), and is also widely used as a model of ASD. Buprenorphine hydrochloride, a MOR partial agonist used as an analgesic, and physiological saline of a solvent were administered once, and the action on social dysfunction of Fmr1 knockout mice was examined. The dose was calculated as a free form for buprenorphine. As a social function evaluation, a 3 chamber test (Nature Medicine, 2017, 23; p674-677) was used. In the 3chamber test, two types of mice (Unfamiliar and Familiar) are placed in cups at both left and right ends of three compartments, and a ratio of time to search for a mouse with high novelty to a mouse with low novelty is calculated and quantified as social function (preference to a mouse with high novelty).

CO[C@]12CC[C@@]3(C[C@@H]1[C@](C)(O)C(C)(C)C)[C@H]1Cc4ccc(O)c5c4[C@@]3(CCN1CC1CC1)[C@H]2O5 [buprenorphine, 21-cyclopropyl-7-a-[(S)-1-hydroxy-1,2,2-trimethylpropyl]-6,14-endo-ethano-6,7,8,14 tetrahydrooripavine]
number of activated nerve cells (c-Fos positive cells) ([1]; 0.003 mg/kg): significantly increased
number of activated nerve cells (c-Fos positive cells) ([1]; 0.03 mg/kg): significantly increased
improvement effect in social impairment (3 chamber test) [2]: significant improvement effect in social impairment
